Measured values published in US7118731B2, “Drugs for the diagnosis of tissue reproductive activity or the treatment of proliferative diseases” (priority 2002, dated 2006).
Like-named read-outs stand apart in the source and are kept apart here. Marks after values point to notes of the source that are not given here.

Key:
[1] = literature; cited from earlier work
[2] = tested on: Walker tumor; test: scintigraphy of Walker tumor; assay type: in vivo; conditions: 37 MBq into tail vein, four hours after administration, Walker tumor in Wistar rats, FIG. 11
Protocol: Malignant tumor, a typical proliferative disease, was observed by scintigraphy. Walker tumor cells were transplanted subcutaneously in the right inguinal region of Wistar rats. After the transplantation, 37 MBq of [I-123] ITDU was injected into the tail vein of rats that suffered a palpable tumor of about 20 mm that was suitable for scintigraphy. Each tumor-transplanted rat was anesthetized with Ravonal four hours after the administration of a drug. Then the rat was fixed in the face-up position and observed statically with gamma-camera imaging equipment (GCA-90B, Toshiba Corporation). Imaging was performed using a high-resolution medium-energy collimator to obtain images for 10 minutes with a resolution of 256×256.

[3] = biological target: T1, E. coli-originating thymidine phospholylase (Escherichia coli, UniProt P07650); conditions: for 5-IU production rate: 0.5–12.0 nmol labeled compound, 0.0009–9.0 units enzyme, n = 3; for 5-IU production rate / metabolic stability of glycosidic bond compared with [I-125] IUR: 25° C.; for Relative activity (C—N glycosidic linkage cleavage): relative to [I-125]IUR = 1.00; for metabolic stability of glycosidic bond compared with [I-125] IUR: thymidine phospholylase
Protocol: To the reaction liquid, 0.5–12.0 nmol of the labeled compound and 0.0009–9.0 units of a liquid enzyme (Sigma Corporation) was added and reacted at 25° C. for a fixed period of time, followed by treatment in a boiling water bath for 3 minutes to stop the reaction. […] The reaction liquid was subjected to centrifugal separation, and the supernatant was applied over a silica gel plate along with an authentic standard (5-iodouridine: IU) and a non-labeled parent compound. It was developed with a mixture of chloroform and isopropyl alcohol (3:1), and then the autoradiogram was measured with a bioimaging analyzer (BAS-1500, Fuji Photo Film Co., Ltd.). The area of interest was set to peak components of the Rf value corresponding to the authentic standard, and the amount of the resulting metabolite was calculated from its proportion in percentage. […] FITAU and [I-125] IMBAU, a reversed phase silica gel plate was used, and after development with a mixture of methanol and water (3:7), an autoradiogram was measured with a bioimaging analyzer (BAS-1500; Fuji Photo Film Co., Ltd.) similarly to the [I-125] IUR and others.

[4] = tested on: L-M (TK-) cells; test: incorporation of labeled compounds into thymidine kinase-deficient L-M (TK-) cells; assay type: cell-based; conditions: 2 nmol labeled compound, one hour
Protocol: (§1) L-M and L-M (TK-) cells in the logarithmic growth phase were planted on 24-well plates, each carrying 2.0×10^5 cells, and cultured overnight. Then 2 nmol of a radioactive iodine-labeled nucleic acid derivative was added and allowed to be incorporated in the cells for one hour. The cells were washed three times with an ice-cooled phosphate buffer solution, and dissolved in 0.1N NaOH, followed by determination of degree of radioactivity incorporated in the cells using an automatic well-type gamma counter (ARC-380 or ARC-300, Aloka Co., Ltd.). Measurements were analyzed to make evaluations based on the amount of the incorporated label molecules per unit weight of cellular proteins. […] ITdU and [I-125] […] IUR as a control.

[5] = tested on: L-M cells; test: incorporation of labeled compounds into L-M cells; assay type: cell-based; conditions: for Incorporation, L-M: 2 nmol labeled compound, one hour, L-M cells; for thymidine kinase-dependent incorporation into cells: L-M versus L-M (TK-) cells; for (L-M)/{L-M(TK-)}: ratio of incorporation, L-M to L-M (TK-), T-test
Protocol: as §1

[6] = in vivo label stability, accumulation of free iodine in thyroid gland (Example 17); conditions: 185 KBq into tail vein, 10 week old normal mice (C57BL/6), longer intervals, FIG. 8
Protocol: To evaluate in vivo stability of deiodination against each radioactive iodine-labeled nucleic acid derivative, tests were conducted to study accumulation of free iodine in the thyroid gland of normal mice. A 185 KBq of each labeled compound was injected in each of 10 week old normal mice (C57BL/6) into the tail vein, and three animals were sacrificed and anatomized at intervals longer than in Example 16. Incorporation of radioactivity in the thyroid gland was measured with an automatic well-type gamma counter (ARC-300, Aloka Co., Ltd.). Incorporated radioactivity in tissue (% ID) was calculated as the administrated per gram of the tissue, and represented in percentage, as shown in FIG. 8.

[7] = in vivo label stability, accumulation of free iodine in thyroid gland (Example 16); conditions: 370 KBq into tail vein, 10 week old normal mice, FIG. 7
Protocol: To evaluate in vivo label stability of [I-125] ITDU and [I-125] ITAU, tests were conducted to study the accumulation of free iodine in the thyroid gland in normal mice. […] For a control, in vivo distribution of [I-125] IUR was also observed. […] Incorporated radioactivity in tissue was calculated as the administrated dose per gram of the tissue per unit time, and represented in percentage, as shown in FIG. 7. […] ITDU and [I-125]

[8] = biological target: T1, E. coli-originating thymidine phospholylase; conditions: for 5-iodouridine production rate: 2 nmole labeled compound, 9 units enzyme, n = 3; for 5-iodouridine production rate / metabolic stability of glycosidic bond compared with [I-125] IUR: 25° C.; for relative activity (C—N glycosidic bond cleavage): relative to [I-125]IUR = 1.00; for metabolic stability of glycosidic bond compared with [I-125] IUR: thymidine phospholylase
Protocol: To the reaction liquid, 2 nmole of the labeled compound and 9 units of a liquid enzyme (Sigma Corporation) were added and reacted at 25° C. for a fixed period of time, and the reaction was stopped by treatment in a boiling water bath for 3 minutes. The reaction liquid was subjected to centrifugal separation, and the supernatant was applied over a thin layer silica gel plate along with an authentic standard (5-iodouridine: IU) and a non-labeled parent compound. It was developed with a mixture of chloroform and isopropyl alcohol (3:1), and then autoradiography was measured with a bioimaging analyzer (BAS-1500, Fuji Photo Film Co., Ltd.). The area of interest was set to peak components of the Rf value corresponding to the authentic standard, and the amount of the resulting metabolite was calculated from its proportion in percentage.

[9] = tested on: thymidine kinase; test: in vitro phosphorylation activity by thymidine kinase (crude enzyme from LL/2 cells); assay type: biochemical, mouse; conditions: for phosphorylation activity attributed to thymidine kinase: crude enzyme from LL/2 cells; for Phosphorylated material production rate: crude enzyme from LL/2 mouse lung cancer cells, 2 nmole labeled compound, ATP, 37° C., n = 3
Protocol: Liquid enzyme was extracted from a LL/2 mouse's lung cancer cell strain in the logarithmic growth phase according to the method of Wolcott R M and Colacino J M (Anal. Biochem 178, p.38–40 (1989)). To a reaction liquid containing ATP, which is a phosphate donor, 2 nmole of the label compound and the liquid enzyme were added and reacted at 37° C. for a fixed period of time. The reaction was stopped by adding 1 mL of a 100 mM lanthanum chloride/5 mM triethanolamine solution. Phosphorylated material was prepared by centrifugal separation to form a phosphate-metal complex, followed by measuring a radioactivity of the resulting precipitate with an automatic well-type gamma counter (ARC-380, Aloka Co., Ltd.). […] ITDU and [I-125] ITAU.

[10] = in vivo accumulation in proliferating tissues of normal mice; conditions: 185 MBq through tail vein, normal mice (C57BL/6), FIG. 10
Protocol: To evaluate the accumulation of each radioactive iodine-labeled nucleic acid derivative in proliferating tissues, tests were conducted to study in vivo distribution in normal mice. A 185 MBq of each labeled compound was injected in each of 10 week old normal mice (C57BL/6) through its tail vein, and three animals were sacrificed and anatomized at appropriate intervals. Incorporation of radioactivity in each tissue sample was measured with an automatic well-type gamma counter (ARC-300, Aloka Co., Ltd.). Incorporated radioactivity in tissue was calculated as the administrated dose per unit weight of the tissue, and represented in percentage (% ID/g).

[11] = in vivo distribution of [I-125] ITDU in normal mice; conditions: 370 KBq into tail vein, FIG. 9
Protocol: A 370 KBq of [I-125] ITDU was injected in each of 10 week old normal mice into the tail vein, and three animals were sacrificed and anatomized at appropriate intervals. Incorporation of radioactivity in each tissue sample was measured with an automatic well-type gamma counter (ARC-300, Aloka Co., Ltd.). Incorporated radioactivity in tissue was calculated as the administrated dose per gram of the tissue, and represented in percentage, as shown in FIG. 9.

T1 sequence (P07650 whole entry): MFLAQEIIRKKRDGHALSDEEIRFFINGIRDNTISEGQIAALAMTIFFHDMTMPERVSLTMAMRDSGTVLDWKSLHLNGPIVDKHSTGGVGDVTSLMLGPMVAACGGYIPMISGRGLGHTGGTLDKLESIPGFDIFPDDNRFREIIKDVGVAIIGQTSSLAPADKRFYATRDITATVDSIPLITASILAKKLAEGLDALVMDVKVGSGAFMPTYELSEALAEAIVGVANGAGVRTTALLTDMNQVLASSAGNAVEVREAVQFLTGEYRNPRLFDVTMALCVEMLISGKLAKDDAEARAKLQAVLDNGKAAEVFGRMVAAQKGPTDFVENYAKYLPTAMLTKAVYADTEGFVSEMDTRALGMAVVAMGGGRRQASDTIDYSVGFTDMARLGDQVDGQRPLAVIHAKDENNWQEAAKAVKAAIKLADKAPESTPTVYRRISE

## O=c1[nH]c(=O)n([C@@H]2O[C@H](CO)[C@@H](O)[C@@H]2F)cc1I [2′-fluoro-5-iodoarabinouridine]
[1]
  stability in vivo: high stability in vivo

## Cc1cn([C@H]2C[C@H](F)[C@@H](CO)O2)c(=O)[nH]c1=O [3′-deoxy-3′-fluorothymidine]
[1]
  stability in vivo: high stability in vivo

## O=c1[nH]c(=O)n([C@H]2C[C@H](O)[C@@H](CO)O2)cc1I [5-iodo-deoxyuridine]
[1]
  stability in vivo: decomposed rapidly in vivo

## O=c1[nH]c(=O)n([C@H]2C[C@H](O)[C@@H](CO)S2)cc1[123I] [[I-123] ITDU, [I-123]-5-iodo-4′-thio-2′-deoxyuridine]
[2]
  scintigraphic imaging of transplanted tumor: clear imaging of transplanted tumors

## O=c1[nH]c(=O)n([C@@H]2S[C@H](CO)[C@@H](O)[C@@H]2F)cc1[125I] [[I-125] FITAU, [I-125]-5-iodo-1-(2-deoxy-2-fluoro-4-thio-β-D-arabinopentofuranosyl)uracil]
[3]
  5-IU production rate: 0.5 ± 0.1 pmol/units/0.5 h
  Relative activity (C—N glycosidic linkage cleavage): <0.00001
  metabolic stability of glycosidic bond compared with [I-125] IUR: still stabler than [I-125] IUR
[4]
  Incorporation, L-M (TK−): 0.21 ± 0.05 pmol/mg protein/h
[5]
  Incorporation, L-M: 0.34 ± 0.05 pmol/mg protein/h
  thymidine kinase-dependent incorporation into cells: incorporated in cells in a thymidine kinase dependent way
  (L-M)/{L-M(TK-)}: 1.62***
[6]
  accumulated radioactivity in the thyroid gland (in vivo label stability): significantly smaller than that from the control [I-125] IUR

## Cn1c(=O)c([125I])cn([C@@H]2O[C@H](CO)[C@@H](O)[C@@H]2Br)c1=O [[I-125] IMBAU, [I-125]-5-iodo-1-methyl-(2-deoxy-2-bromo-β-D-arabinopentofuranosyl)uracil]
[3]
  5-IU production rate: 0.0 pmol/units/0.5 h
  Relative activity (C—N glycosidic linkage cleavage): 0.0
  metabolic stability of glycosidic bond compared with [I-125] IUR: still stabler than [I-125] IUR
[3]; boiling water bath for 3 minutes used to stop the reaction
  stability under heat treatment: unstable under heat treatment
[6]
  accumulated radioactivity in the thyroid gland (in vivo label stability): significantly smaller than that from the control [I-125] IUR

## O=c1[nH]c(=O)n(C2S[C@H](CO)[C@@H](O)[C@@H]2O)cc1[125I] (stereo partly drawn) [[I-125] ITAU, [I-125]-5-iodo-1-(4-thio-D-arabinofuranosyl)uracil]
[7]
  accumulated radioactivity in the thyroid gland (in vivo label stability): significantly smaller than that from the control [I-125] IUR
[3]
  5-IU production rate: 514.8 ± 367.0 pmol/units/0.5 h
  Relative activity (C—N glycosidic linkage cleavage): <0.01
[4]
  Incorporation, L-M (TK−): 1.20 ± 0.20 pmol/mg protein/h
[8]
  5-iodouridine production rate: 524.3 ± 373.8 p mole/units/30 min
  relative activity (C—N glycosidic bond cleavage): < 0.01
  metabolic stability of glycosidic bond compared with [I-125] IUR: stabler than 5-iododeoxyuridine
[5]
  Incorporation, L-M: 1.68 ± 0.28 pmol/mg protein/h
  (L-M)/{L-M(TK-)}: 1.40**
[9]
  phosphorylation activity attributed to thymidine kinase: confirmed
  Phosphorylated material production rate: 13.6 ± 6.6 p mole/mg protein/h
[6]
  accumulated radioactivity in the thyroid gland (in vivo label stability): significantly smaller than that from the control [I-125] IUR

## O=c1[nH]c(=O)n([C@H]2C[C@H](O)[C@@H](CO)S2)cc1[125I] [[I-125] ITDU, [I-125]-5-iodo-4′-thio-2′-deoxyuridine]
[7]
  accumulated radioactivity in the thyroid gland (in vivo label stability): significantly smaller than that from the control [I-125] IUR
[3]
  5-IU production rate: 3778.7 ± 692.0 pmol/units/0.5 h
[10]
  accumulation in proliferating tissues (% ID/g): accumulated in large amounts particularly in the thymus
[4]
  Incorporation, L-M (TK−): 3.94 ± 0.63 pmol/mg protein/h
[8]
  5-iodouridine production rate: 4075.9 ± 736.4 p mole/units/30 min
  relative activity (C—N glycosidic bond cleavage): 0.03
  metabolic stability of glycosidic bond compared with [I-125] IUR: stabler than 5-iododeoxyuridine
[5]
  Incorporation, L-M: 10.90 ± 1.48 pmol/mg protein/h
  thymidine kinase-dependent incorporation into cells: incorporated in cells in a thymidine kinase dependent way
  (L-M)/{L-M(TK-)}: 2.77*
[11]
  accumulated radioactivity in proliferating tissues (thymus, small intestine) versus non-proliferating tissues (brain, liver, muscle): certainly higher than that in non-proliferating tissues
[9]
  phosphorylation activity attributed to thymidine kinase: confirmed
  Phosphorylated material production rate: 1182.7 ± 100.1 p mole/mg protein/h
[6]
  accumulated radioactivity in the thyroid gland (in vivo label stability): significantly smaller than that from the control [I-125] IUR

## O=c1[nH]c(=O)n([C@H]2C[C@H](O)[C@@H](CO)O2)cc1I [[I-125] IUR, 5-iododeoxyuridine, reference compound]
[3]
  Relative activity (C—N glycosidic linkage cleavage): 1.00
[10]
  accumulation in proliferating tissues (% ID/g): accumulated in large amounts particularly in the thymus
[4]
  Incorporation, L-M (TK−): 27.86 ± 2.94 pmol/mg protein/h
[8]
  relative activity (C—N glycosidic bond cleavage): 1.00
[5]
  Incorporation, L-M: 77.80 ± 7.45 pmol/mg protein/h
  thymidine kinase-dependent incorporation into cells: incorporated in cells in a thymidine kinase dependent way
  (L-M)/{L-M(TK-)}: 2.79*
